Assay results published in ChEMBL document CHEMBL1201862, “PubChem BioAssay data set” (2004).
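Following 48 hours of exposure in 96-well plates, responses at five concentrations were used to interpolate endpoints linearly. GI50 = concentration required for 50% inhibition of growth.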 Active and inactive are the calls of the source. Rule as the data show it: active = GI50 up to about 1.1 µM and inactive = higher.

Key:
Experiment in all cases: NCI tumour cell line growth inhibition, 48 h
HCC 2998 = test system: HCC 2998
IGROV-1 = test system: IGROV-1
CAKI-1 = test system: CAKI-1
SK-MEL-5 = test system: SK-MEL-5
OVCAR-4 = test system: OVCAR-4
RXF 393 = test system: RXF 393
Hs-578T = test system: Hs-578T
SK-OV-3 = test system: SK-OV-3
DU-145 = test system: DU-145
KM12 = test system: KM12
OVCAR-5 = test system: OVCAR-5
TK-10 = test system: TK-10
PC-3 = test system: PC-3
U-251 = test system: U-251
786-0 = test system: 786-0
UO-31 = test system: UO-31
NCI/ADR-RES = test system: NCI/ADR-RES
OVCAR-8 = test system: OVCAR-8
MOLT-4 = test system: MOLT-4
NCI-H522 = test system: NCI-H522

| Compound | GI50 (HCC 2998) | GI50 (IGROV-1) | GI50 (CAKI-1) | GI50 (SK-MEL-5) | GI50 (OVCAR-4) | GI50 (RXF 393) | GI50 (Hs-578T) | GI50 (SK-OV-3) | GI50 (DU-145) | GI50 (KM12) | GI50 (OVCAR-5) | GI50 (TK-10) | GI50 (PC-3) | GI50 (U-251) | GI50 (786-0) | GI50 (UO-31) | GI50 (NCI/ADR-RES) | GI50 (OVCAR-8) | GI50 (MOLT-4) | GI50 (NCI-H522) |
| --- | --- | --- | --- | --- | --- | --- | --- | --- | --- | --- | --- | --- | --- | --- | --- | --- | --- | --- | --- | --- |
| CC1(C)Cc2nc3c(cc2C(=O)C1/C=N/C(C#N)=C(\N)C#N)C(=O)C(/C=N/C(C#N)=C(\N)C#N)C(C)(C)C3 (stereo not given) | 4.52 µM (inactive) | 1.52 µM (inactive) | 1.65 µM (inactive) | 2 µM (inactive) | 4.04 µM (inactive) | 1.68 µM (inactive) | 0.916 µM (active) | 3.02 µM (inactive) | 2.3 µM (inactive) | 1.77 µM (inactive) | 2.34 µM (inactive) | 4.8 µM (inactive) | 1.99 µM (inactive) | 2.04 µM (inactive) | 1.84 µM (inactive) | 1.84 µM (inactive) | 6.47 µM (inactive) | 2.36 µM (inactive) | 2.37 µM (inactive) | 0.705 µM (active) |
| COc1ccc(C(Nc2ncccn2)c2cc3c(cc2O)OCO3)cc1 (stereo not given) | 21.7 µM (inactive) | 23 µM (inactive) | 20.3 µM (inactive) | 20.4 µM (inactive) | 42.8 µM (inactive) | 17.9 µM (inactive) | 23.4 µM (inactive) | 22.1 µM (inactive) | 20.5 µM (inactive) | 17.9 µM (inactive) | 31.8 µM (inactive) | 18.6 µM (inactive) | 19.5 µM (inactive) | 15.4 µM (inactive) | 18 µM (inactive) | 17.1 µM (inactive) | 30.8 µM (inactive) | 19.2 µM (inactive) | 26.3 µM (inactive) | 16.7 µM (inactive) |
| CC(C#N)(c1ccccc1)N(CCc1ccccc1)C(=O)Oc1ccccc1 (stereo not given) | > 100 µM (inactive) | > 100 µM (inactive) | > 100 µM (inactive) | > 100 µM (inactive) | 30.7 µM (inactive) | 26.7 µM (inactive) | 35.5 µM (inactive) | > 100 µM (inactive) | > 100 µM (inactive) | > 100 µM (inactive) | > 100 µM (inactive) | > 100 µM (inactive) | > 100 µM (inactive) | > 100 µM (inactive) | 40.6 µM (inactive) | > 100 µM (inactive) | > 100 µM (inactive) | > 100 µM (inactive) | > 100 µM (inactive) | > 100 µM (inactive) |
| Cc1cccc(C(C)(C)C)c1NC(=O)C(C#N)C1=C(Cl)C(=O)c2ccccc2C1=O (stereo not given) | 15.7 µM (inactive) | 18.4 µM (inactive) | 16.7 µM (inactive) | 17 µM (inactive) | 15.4 µM (inactive) | 16.9 µM (inactive) | 21.1 µM (inactive) | 15.8 µM (inactive) | 22 µM (inactive) | 16.3 µM (inactive) | 17.9 µM (inactive) | 19.1 µM (inactive) | 13.5 µM (inactive) | 16.9 µM (inactive) | 16.2 µM (inactive) | 14.7 µM (inactive) | 16.6 µM (inactive) | 18.2 µM (inactive) | 2.74 µM (inactive) | 13.8 µM (inactive) |
| O=C(O)CCc1nc2c(n1Cc1ccccc1)C(=O)c1ccccc1C2=O | > 100 µM (inactive) | 70.3 µM (inactive) | > 100 µM (inactive) | 21.2 µM (inactive) | > 100 µM (inactive) | 24.9 µM (inactive) | 66.5 µM (inactive) | 69.3 µM (inactive) | > 100 µM (inactive) | 52.4 µM (inactive) | > 100 µM (inactive) | 34.1 µM (inactive) | 72.9 µM (inactive) | 56 µM (inactive) | > 100 µM (inactive) | 30.8 µM (inactive) | 59.6 µM (inactive) | 49.4 µM (inactive) | 68.9 µM (inactive) | 24.3 µM (inactive) |
| COc1ccc2c(c1)C(=O)C(=O)c1cc(O)c(OC)c(OC)c1-2 | 4.55 µM (inactive) | 0.791 µM (active) | 0.918 µM (active) | 0.826 µM (active) | 0.719 µM (active) | 0.9 µM (active) | 1.07 µM (active) | 1.5 µM (inactive) | 0.918 µM (active) | 0.979 µM (active) | 1.12 µM (inactive) | 1.01 µM (active) | 1.07 µM (active) | 0.863 µM (active) | 0.836 µM (active) | 0.925 µM (active) | 1.03 µM (active) | 0.875 µM (active) | 0.114 µM (active) | 0.927 µM (active) |
| COc1cccc(-c2cc(O)c3cc(Cl)cnc3n2)c1 | 0.164 µM (active) | 0.228 µM (active) | 0.0546 µM (active) | 0.0495 µM (active) | 6.17 µM (inactive) | 0.0698 µM (active) | 0.0743 µM (active) | 0.152 µM (active) | 0.358 µM (active) | 0.0887 µM (active) | 1.33 µM (inactive) | 12.9 µM (inactive) | 0.065 µM (active) | 0.0693 µM (active) | 0.102 µM (active) | 0.313 µM (active) | 0.0341 µM (active) | 0.158 µM (active) | 0.0991 µM (active) | 0.0577 µM (active) |
